Reference: patent US20240158446A1, “CYCLIC COMPOUND HAVING SELECTIVE INHIBITORY ACTION ON KRAS OVER HRAS AND NRAS” (CHUGAI SEIYAKU KABUSHIKI KAISHA, priority 2021, published 2024)
Where a SMILES comes first, the peptide text is derived from it. Bridges are numbered along the chain shown (N, C = ends). [ ]: non-standard residue; d: D form. The star is where a group is joined. hPhe(3-Cl-4-CF3) = N[C@@H](CCc1ccc(C(F)(F)F)c(Cl)c1)C(=O)O; NEtPhe(4-Me) = CCN[C@@H](Cc1ccc(C)cc1)C(=O)O; NMeGly(cPent) = CN[C@H](C(=O)O)C1CCCC1; Hyp = O=C(O)[C@@H]1C[C@@H](O)CN1; NMeD = CN[C@@H](CC(=O)O)C(=O)O; NMeL = CN[C@@H](CC(C)C)C(=O)O; Morpholide = C1CN(*)CCO1; Ac5c = NC1(C(=O)O)CCCC1; X51 = C1CCC(*)OC1; Sar = CNCC(=O)O

Legend:
[1] = molecular target: GDP-bound NRAS wild-type protein (Homo sapiens, UniProt P01111); assay: Binding to NRAS by surface plasmon resonance (SPR), Single Cycle Kinetics; conditions: for NRAS/KRAS (ratio of KD value with respect to NRAS to KD value with respect to KRAS) / NRAS/KRAS (ratio of KD value for NRAS to KD value for KRAS): SPR, GDP-bound NRAS wild-type protein vs GDP-bound KRAS wild-type protein; for NRAS/KRAS (ratio of KD value with respect to GDP-bound NRAS wild-type protein to KD value with respect to KRAS): SPR KD ratio NRAS/KRAS, class symbols
GDP-bound NRAS wild-type protein, sequence (P01111 whole entry): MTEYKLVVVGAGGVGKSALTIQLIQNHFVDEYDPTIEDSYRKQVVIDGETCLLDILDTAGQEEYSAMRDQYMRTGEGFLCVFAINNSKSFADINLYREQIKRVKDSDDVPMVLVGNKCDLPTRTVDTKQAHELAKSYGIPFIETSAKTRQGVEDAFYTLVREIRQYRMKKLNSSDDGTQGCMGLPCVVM

[2] = molecular target: GDP-bound HRAS wild-type protein (Homo sapiens, UniProt P01112); assay: Binding to HRAS by surface plasmon resonance (SPR), Single Cycle Kinetics; conditions: for HRAS/KRAS (ratio of KD value with respect to HRAS to KD value with respect to KRAS) / HRAS/KRAS (ratio of KD value for HRAS to KD value for KRAS): SPR, GDP-bound HRAS wild-type protein vs GDP-bound KRAS wild-type protein; for HRAS/KRAS (ratio of KD value with respect to GDP-bound HRAS wild-type protein to KD value with respect to KRAS): SPR KD ratio HRAS/KRAS, class symbols
GDP-bound HRAS wild-type protein, sequence (P01112 whole entry): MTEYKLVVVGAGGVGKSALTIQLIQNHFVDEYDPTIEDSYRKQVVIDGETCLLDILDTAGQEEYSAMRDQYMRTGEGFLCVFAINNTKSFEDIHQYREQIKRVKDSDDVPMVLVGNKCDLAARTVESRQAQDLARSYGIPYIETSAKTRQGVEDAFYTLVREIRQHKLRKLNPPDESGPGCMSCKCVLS

Structure (SMILES) | NRAS/KRAS (ratio of KD value for NRAS to KD value for KRAS) [1] | HRAS/KRAS (ratio of KD value for HRAS to KD value for KRAS) [2] | also measured
CC[C@H](C)[C@@H]1NC(=O)[C@H](CC(C)C)N(C)C(=O)C[C@@H](C(=O)N(C)C)N(C)C(=O)[C@H](C2CCCC2)N(C)C(=O)C2(CCCC2)NC(=O)[C@@H]2CCCN2C(=O)[C@H](CCc2ccc(C(F)(F)F)c(Cl)c2)NC(=O)CN(C)C(=O)[C@H](Cc2ccc(C)cc2)N2CC=CCOC[C@H](C2=O)N(C)C(=O)CN(C)C1=O [PP0629] | – | – | NRAS/KRAS (ratio of KD value with respect to NRAS to KD value with respect to KRAS) [1]: B (a compound having 3 or more and less than 10 is denoted as B); HRAS/KRAS (ratio of KD value with respect to HRAS to KD value with respect to KRAS) [2]: C (A compound having a KD ratio of 0.1 or more and less than 3 is denoted as C)
CCO[C@@H]1C[C@H]2C(=O)N(C)C3(CC(C)(C)C3)C(=O)N(C)[C@@H](C(CC)CC)C(=O)N(C)[C@H](C(=O)N(C)C)CC(=O)N(C)[C@@H](COC)C(=O)N[C@@H]([C@@H](C)CC)C(=O)N(C)CC(=O)N(C)[C@H]3C/C=C\CCN(C3=O)[C@@H](Cc3ccc(C)cc3)C(=O)N(C)CC(=O)N[C@@H](CCc3ccc(Cl)c(Cl)c3)C(=O)N2C1 [PP2810] | – | – | NRAS/KRAS (ratio of KD value with respect to GDP-bound NRAS wild-type protein to KD value with respect to KRAS) [1]: AA (a compound having 20 or more is denoted as AA); HRAS/KRAS (ratio of KD value with respect to GDP-bound HRAS wild-type protein to KD value with respect to KRAS) [2]: A (a compound having 10 or more and less than 20 is denoted as A)
CC[C@H](C)[C@@H]1NC(=O)[C@H](CC(C)C)N(C)C(=O)C[C@@H](C(=O)N(C)C)N(C)C(=O)[C@H](C2CCCC2)N(C)C(=O)C2(CCCC2)NC(=O)[C@@H]2CCCN2C(=O)[C@H](CCc2ccc(C(F)(F)F)c(Cl)c2)NC(=O)CN(C)C(=O)[C@H](Cc2ccc(F)cc2)N2CCCCC[C@@H](C2=O)N(C)C(=O)CN(C)C1=O [PP0971] | B (a compound having 3 or more and less than 10 is denoted as B) | B (a compound having 3 or more and less than 10 is denoted as B) | –
CCO[C@@H]1C[C@H]2C(=O)NC3(CCC3)C(=O)N(C)[C@@H](C3CCCC3)C(=O)N(C)[C@H](C(=O)N(C)CC)CC(=O)N(C)[C@H]3CCCCCCc4ccc(cc4)C[C@@H](C(=O)N(C)CC(=O)N[C@@H](CCc4ccc(C(F)(F)F)c(OC)c4)C(=O)N2C1)N1CC/C=C\C[C@@H](C1=O)N(C)C(=O)CN(C)C(=O)[C@H]([C@@H](C)CC)NC3=O [PP2263] | A (a compound having 10 or more and less than 20 is denoted as A) | A (a compound having 10 or more and less than 20 is denoted as A) | –
CC[C@H](C)[C@@H]1NC(=O)[C@H](CC(C)C)N(C)C(=O)C[C@@H](C(=O)N2C3CCC2COC3)N(C)C(=O)[C@H](C2CCCC2)N(C)C(=O)C2(CCCC2)NC(=O)[C@@H]2CCCN2C(=O)[C@H](CCc2cc(F)c(C(F)(F)F)c(F)c2)NC(=O)CN(C)C(=O)[C@H](Cc2ccc(C(F)(F)F)cc2)N2CCCCC[C@@H](C2=O)N(C)C(=O)CN(C)C1=O [PP0511] | – | – | NRAS/KRAS (ratio of KD value with respect to NRAS to KD value with respect to KRAS) [1]: A (a compound having 10 or more and less than 20 is denoted as A); HRAS/KRAS (ratio of KD value with respect to HRAS to KD value with respect to KRAS) [2]: B (a compound having 3 or more and less than 10 is denoted as B)
CCO[C@@H]1C[C@H]2C(=O)NC3(CCC3)C(=O)N(C)[C@@H]([C@H](C)CC)C(=O)N(C)[C@H](C(=O)N3CCOCC3)CC(=O)N(C)[C@@H](CC(C)C)C(=O)N[C@@H]([C@@H](C)CC)C(=O)N(C)CC(=O)N(C)[C@H]3CCCCCN(C3=O)[C@@H](Cc3ccc(C(F)(F)F)cc3)C(=O)N(C)CC(=O)N[C@@H](CCc3cc(F)c(C(F)(F)F)c(F)c3)C(=O)N2C1 [PP0821] | A (a compound having 10 or more and less than 20 is denoted as A) | B (a compound having 3 or more and less than 10 is denoted as B) | –
CCO[C@@H]1C[C@H]2C(=O)NC3(CCC3)C(=O)N(C)[C@@H](C3CCCC3)C(=O)N(C)[C@H](C(=O)N3CCOCC3)CC(=O)N(C)[C@@H](CC(C)(C)C)C(=O)N[C@@H]([C@@H](C)CC)C(=O)N(C)CC(=O)N(C)[C@H]3CCCCCN(C3=O)[C@@H](Cc3ccc(C(F)(F)F)cc3)C(=O)N(C)CC(=O)N[C@@H](CCc3cc(F)c(C(F)(F)F)c(F)c3)C(=O)N2C1 [PP0684] | – | – | NRAS/KRAS (ratio of KD value with respect to NRAS to KD value with respect to KRAS) [1]: B (a compound having 3 or more and less than 10 is denoted as B); HRAS/KRAS (ratio of KD value with respect to HRAS to KD value with respect to KRAS) [2]: B (a compound having 3 or more and less than 10 is denoted as B)
CC[C@@H]1C[C@H]2C(=O)NC3(CCC3)C(=O)N(C)[C@@H](C3CCCC3)C(=O)N(C)[C@H](C(=O)N(C)C)CC(=O)N(C)[C@@H](CC(C)C)C(=O)N[C@@H]([C@@H](C)CC)C(=O)N(C)CC(=O)N(C)[C@H]3C/C=C\CCN(C3=O)[C@@H](Cc3ccc(C)cc3)C(=O)N(C)CC(=O)N[C@@H](CCc3cc(F)c(C(F)(F)F)c(F)c3)C(=O)N2C1 [PP2220] | A (a compound having 10 or more and less than 20 is denoted as A) | A (a compound having 10 or more and less than 20 is denoted as A) | –
CCC[C@H]1C(=O)N[C@@H]([C@@H](C)CC)C(=O)N(C2CC2)CC(=O)N(C)[C@H]2C/C=C\CCN(C2=O)[C@@H](Cc2ccc(C)cc2)C(=O)N(C)CC(=O)N[C@@H](CCc2cc(C)c(C(F)F)c(Cl)c2)C(=O)N2C[C@H](OCC)C[C@H]2C(=O)NC2(CC(C)(C)C2)C(=O)N(C)[C@@H](C2CCCC2)C(=O)N(C)[C@H](C(=O)N(C)C)CC(=O)N1C [PP2875] | – | – | NRAS/KRAS (ratio of KD value with respect to GDP-bound NRAS wild-type protein to KD value with respect to KRAS) [1]: A (a compound having 10 or more and less than 20 is denoted as A); HRAS/KRAS (ratio of KD value with respect to GDP-bound HRAS wild-type protein to KD value with respect to KRAS) [2]: A (a compound having 10 or more and less than 20 is denoted as A)
CCO[C@@H]1C[C@H]2C(=O)NC3(CCC3)C(=O)N(C)[C@@H](C3CCCC3)C(=O)N(C)[C@H](C)CC(=O)N(C)[C@@H](CC(C)C)C(=O)N[C@@H]([C@@H](C)CC)C(=O)N(C)CC(=O)N(C)[C@H]3C/C=C\CCN(C3=O)[C@@H](Cc3ccc(C(F)(F)F)cc3)C(=O)N(C)CC(=O)N[C@@H](CCc3cc(F)c(C(F)(F)F)c(F)c3)C(=O)N2C1 [PP1100] | B (a compound having 3 or more and less than 10 is denoted as B) | B (a compound having 3 or more and less than 10 is denoted as B) | –
CCC[C@H]1C(=O)N[C@@H]([C@@H](C)CC)C(=O)N(C)CC(=O)N(C)[C@H]2C/C=C\CCN(C2=O)[C@@H](Cc2ccc(C)cc2)C(=O)N(C)CC(=O)N[C@@H](CCc2ccc(Cl)c(Cl)c2)C(=O)N2C[C@H](OCC)C[C@H]2C(=O)NC2(CC(C)(C)C2)C(=O)N(C)[C@@H](CC2CC2)C(=O)N(C)[C@H](C(=O)N(C)C)CC(=O)N1C [PP2799] | – | – | NRAS/KRAS (ratio of KD value with respect to GDP-bound NRAS wild-type protein to KD value with respect to KRAS) [1]: A (a compound having 10 or more and less than 20 is denoted as A); HRAS/KRAS (ratio of KD value with respect to GDP-bound HRAS wild-type protein to KD value with respect to KRAS) [2]: A (a compound having 10 or more and less than 20 is denoted as A)
CC[C@H](C)[C@@H]1NC(=O)[C@H](CC(C)C)N(C)C(=O)C[C@@H](C(=O)N2CCOCC2)N(C)C(=O)[C@H](C2CCCC2)N(C)C(=O)C2(CCC2)NC(=O)[C@@H]2[C@H](OC)CCN2C(=O)[C@H](CCc2cc(F)c(C(F)(F)F)c(F)c2)NC(=O)CN(C)C(=O)[C@H](Cc2ccc(C(F)(F)F)cc2)N2CCCC[C@@H](C2=O)N(C)C(=O)CN(C)C1=O [PP1084] | C (A compound having a KD ratio of 0.1 or more and less than 3 is denoted as C) | B (a compound having 3 or more and less than 10 is denoted as B) | –
CCC[C@H]1C(=O)N[C@@H](C2CCCC2)C(=O)N(C)CC(=O)N(C)[C@H]2C/C=C\CCN(C2=O)[C@@H](Cc2ccc(C)cc2)C(=O)N(C)CC(=O)N[C@@H](CCc2cc(F)c(C(F)(F)F)c(F)c2)C(=O)N2C[C@H](OCC)C[C@H]2C(=O)NC2(CC(C)(C)C2)C(=O)N(C)[C@@H](C2CCCC2)C(=O)N(C)[C@H](C(=O)N(C)C)CC(=O)N1C [PP2988] | B (a compound having 3 or more and less than 10 is denoted as B) | B (a compound having 3 or more and less than 10 is denoted as B) | –
CC[C@H](C)[C@@H]1NC(=O)[C@H](CC(C)C)N(C)C(=O)C[C@@H](C(=O)N2CCOCC2)N(C)C(=O)[C@H](C2CCCC2)N(C)C(=O)C2(CCCC2)NC(=O)[C@@H]2C[C@@H](OC3CCCCO3)CN2C(=O)[C@H](CCc2ccc(C(F)(F)F)c(Cl)c2)NC(=O)CN(C)C(=O)[C@H](Cc2ccc(C)cc2)N(CC)C(=O)CN(C)C(=O)CN(C)C1=O (some centres unmarked) [PP0068] ([NMeL]I[Sar][Sar][NEtPhe(4-Me)][Sar][hPhe(3-Cl-4-CF3)][Hyp](X51)[Ac5c][NMeGly(cPent)][NMeD]-Morpholide; lactam N-11) | C (A compound having a KD ratio of 0.1 or more and less than 3 is denoted as C) | C (A compound having a KD ratio of 0.1 or more and less than 3 is denoted as C) | –
CC[C@H](C)[C@@H]1NC(=O)[C@H](CC(C)C)N(C)C(=O)C[C@@H](C(=O)N2CCOCC2)N(C)C(=O)[C@H](C2CCCC2)N(C)C(=O)C2(CCC2)NC(=O)[C@@H]2CC(F)(F)CN2C(=O)[C@H](CCc2ccc(C(F)(F)F)c(Cl)c2)NC(=O)CN(C)C(=O)[C@H](Cc2ccc(F)cc2)N2CCCCC[C@@H](C2=O)N(C)C(=O)CN(C)C1=O [PP0969] | B (a compound having 3 or more and less than 10 is denoted as B) | B (a compound having 3 or more and less than 10 is denoted as B) | –
CCO[C@@H]1C[C@H]2C(=O)NC3(CC(C)(C)C3)C(=O)N(C)[C@@H](C3CCCC3)C(=O)N(C)[C@H](C(=O)N(C)CC)CC(=O)N(C)[C@H]3C/C=C/c4ccc(cc4)C[C@@H](C(=O)N(C)CC(=O)N[C@@H](CCc4ccc(Cl)c(Cl)c4)C(=O)N2C1)N1CC/C=C\C[C@@H](C1=O)N(C)C(=O)CN(C)C(=O)[C@H]([C@@H](C)CC)NC3=O [PP3056] | A (a compound having 10 or more and less than 20 is denoted as A) | A (a compound having 10 or more and less than 20 is denoted as A) | –
